Literature values, collected in patent US20260272955A1, “Controlled Release Formulations of Highly Lipophilic Physiologically Active Substances” (ADD Advanced Drug Delivery Technologies Ltd., priority 2019, published 2026).

Details: decimal logarithm of the n-octanol/water partition coefficient; values typically refer to room temperature (25° C.)

## C=C(C)[C@@H]1CCC(C)=C[C@H]1c1c(O)cc(CCCCC)cc1O [Canapure PH, 2-[1R-3-methyl-6R-(1-methylethenyl)-2-cyclohexen-1-yl]-5-pentyl-1,3-benzenediol]
  log P: about 6.1
